The values that follow are results of earlier work, collected in patent US20080254084A1, “Antimicrobial Preparations Having a Content of Octenidine Dihydrochloride Encapsulated in Liposomes” (Air Liquide Sante (International), priority 2005, published 2008).

Where a name gives a salt, the structure may show the parent alone. Where only a bound is given, the exact number is not on record here.

The subject of data set [1] is a large number of microbes. As to conditions: concentrations of >0.001% octenidine dihydrochloride, within 1 min.
For data set [2] the following is noted: octenidine dihydrochloride concentration.

For the compound `CCCCCCCCNc1cc[n+](CCCCCCCCCC[n+]2ccc(NCCCCCCCC)cc2)cc1` [octenidine dihydrochloride], the reduction factor in data set [1] is listed as 5 decadic units. In addition, in data set [2], the “concentration at which cytotoxicity is present” value is recorded as > 0.001 % by weight.
